Counter-ions that a name gives are not always drawn.
What follows are molecules tested against T1, MAPKAPK2 enzyme (HIS-MK2, Invitrogen PV4019) (Homo sapiens, UniProt P49137) (assay: Alternative MAPKAPK2 assay (Caliper microfluidic mobility shift, HSP27-peptide)). Conditions: HIS-MK2 0.013 nM, ATP 10 μM, 60 min at 30° C.
T1 construct: His; purchased Invitrogen PV4019
Type: biochemical

T1 sequence (P49137 whole entry): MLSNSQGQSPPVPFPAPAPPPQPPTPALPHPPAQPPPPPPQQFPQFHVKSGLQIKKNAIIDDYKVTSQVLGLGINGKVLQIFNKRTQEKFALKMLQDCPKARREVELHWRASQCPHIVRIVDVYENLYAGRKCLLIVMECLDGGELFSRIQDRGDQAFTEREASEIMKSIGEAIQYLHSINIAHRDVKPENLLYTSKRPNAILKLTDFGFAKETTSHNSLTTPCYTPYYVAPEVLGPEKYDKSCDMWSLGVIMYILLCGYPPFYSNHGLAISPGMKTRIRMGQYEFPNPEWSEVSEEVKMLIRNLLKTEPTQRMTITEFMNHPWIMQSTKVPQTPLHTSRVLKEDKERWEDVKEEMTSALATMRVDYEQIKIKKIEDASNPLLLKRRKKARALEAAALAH

Going from `O=C1NCC2(CC2)c2[nH]c3c(c21)CCc1cnc(-c2ccncc2)cc1-3` [Example 124, 2-(1-Aminomethyl-cyclopropyl)-8-pyridin-4-yl-4,5-dihydro-1H-pyrrolo[2,3-f]isoquinoline-3-carboxylic acid lactam] to `N#Cc1cncc(-c2cc3c(cn2)CCc2c-3[nH]c3c2C(=O)NCC32CC2)c1` [Example 113, 2-(1-Aminomethyl-cyclopropyl)-8-(5-cyano-pyridin-3-yl)-4,5-dihydro-1H-pyrrolo[2,3-f]isoquinoline-3-carboxylic acid lactam], the IC50 falls from 0.055 µM to 0.023 µM (2.4-fold). The second is the more potent here.

First: CCN1CC2(C1)c1[nH]c3c(c1C(=O)NC21CC1)CCc1cnc(-c2cnc(OC)c(F)c2)cc1-3 [Example 252, 2-[3-(1-Amino-cyclopropyl)-1-ethyl-azetidin-3-yl]-8-(5-fluoro-6-methoxy-pyridin-3-yl)-4,5-dihydro-1H-pyrrolo[2,3-f]isoquinoline-3-carboxylic acid lactam]
Second: CCN1CC2(C1)c1[nH]c3c(c1C(=O)NC21CC1)CCc1cnc(-c2ccc(OC)nc2)cc1-3 [Example 251, 2-[3-(1-Amino-cyclopropyl)-1-ethyl-azetidin-3-yl]-8-(6-methoxy-pyridin-3-yl)-4,5-dihydro-1H-pyrrolo[2,3-f]isoquinoline-3-carboxylic acid lactam]
The IC50 of the first is 2.7-fold higher: 0.008 µM for the first, 0.003 µM for the second. The second is the more potent here.

Compared with `CN1CC2(C1)c1[nH]c3c(c1C(=O)NC21CC1)CCc1cnc(-c2ccc(CCCN4CCOCC4)cc2)cc1-3` [Example 260, 2-[3-(1-Amino-cyclopropyl)-1-methyl-azetidin-3-yl]-8-[4-(3-morpholin-4-yl-propyl)-phenyl]-4,5-dihydro-1H-pyrrolo[2,3-f]isoquinoline-3-carboxylic acid lactam], `O=C1NC2(CCC2)Cc2[nH]c3c(c21)CCc1cnc(-c2ccc(OCCN4CCOCC4)cc2)cc1-3` [Example 231, 2-(1-Amino-cyclobutylmethyl)-8-[4-(2-morpholin-4-yl-ethoxy)-phenyl]-4,5-dihydro-1H-pyrrolo[2,3-f]isoquinoline-3-carboxylic acid lactam] is higher in IC50: < 0.003 µM for the first, 0.072 µM for the second.

`Cn1c2c(c3c1-c1nc(-c4cncc(C(=O)NCc5ccccc5)c4)ncc1CC3)C(=O)NC1(CNC1)C2` [Example 296, 2-(3-Amino-azetidin-3-ylmethyl)-8-(3-benzylcarbamoyl-3-pyridyl)-1-methyl-4,5-dihydro-1H-1,7,9-triaza-cyclopenta[a]naphthalene-3-carboxylic acid lactam hydrochloride] and `COc1cncc(-c2cc3c(cn2)CCc2c4c(n(C)c2-3)CC2(CNC2)NC4=O)c1` [Example 140, 2-(3-Amino-azetidin-3-ylmethyl)-8-(5-methoxy-pyridin-3-yl)-1-methyl-4,5-dihydro-1H-pyrrolo[2,3-f]isoquinoline-3-carboxylic acid lactam hydrochloride] are within 1.5-fold of each other in IC50: 0.017 µM for the first, 0.012 µM for the second.

Compared with `CN(C)c1ccc(-c2cc3c(cn2)CCc2c-3[nH]c3c2C(=O)NC2(CC2)C32CC2)cn1` [Example 197, 2-(1′-Amino-bicyclopropyl-1-yl)-8-(6-dimethylamino-pyridin-3-yl)-4,5-dihydro-1H-pyrrolo[2,3-f]isoquinoline-3-carboxylic acid lactam], `Cc1ccc(-c2cc3c(cn2)CCc2c-3[nH]c3c2C(=O)NC2(CC2)C32CC2)cn1` [Example 193, 2-(1′-Amino-bicyclopropyl-1-yl)-8-(6-methyl-pyridin-3-yl)-4,5-dihydro-1H-pyrrolo[2,3-f]isoquinoline-3-carboxylic acid lactam] is 3.2-fold lower in IC50: 0.038 µM for the first, 0.012 µM for the second. The second is the more potent here.

`CN1CC2(CNC(=O)c3c2[nH]c2c3CCc3cnc(-c4cccc(Cl)c4)cc3-2)C1` [Example 188, 2-[3-Aminomethyl-1-methyl-azetidin-3-yl]-8-(3-chloro-phenyl)-4,5-dihydro-1H-pyrrolo[2,3-f]isoquinoline-3-carboxylic acid lactam] and `CN1CC2(C1)c1[nH]c3c(c1C(=O)NC21CC1)CCc1cnc(-c2cccc(Cl)c2)cc1-3` [Example 224, 2-[3-(1-Amino-cyclopropyl)-1-methyl-azetidin-3-yl]-8-(3-chlorophenyl)-4,5-dihydro-1H-pyrrolo[2,3-f]isoquinoline-3-carboxylic acid lactam] cannot be ordered by IC50: < 0.003 µM for the first, < 0.003 µM for the second.

Going from `CN1CCN(c2ccc(-c3cc4c(cn3)CCc3c-4[nH]c4c3C(=O)NC3(CC3)C4)cc2C#N)CC1` [Example 321, 2-(4-Methyl-piperazin-1-yl)-9-spirocyclopropyl-5-(7-oxo-6,7,8,9,10,11-hexahydro-5H-3,8,11-triaza-benzo[a]fluoren-2-yl)-benzonitrile] to `N#Cc1ccc(-c2cc3c(cn2)CCc2c-3[nH]c3c2C(=O)NC2(CC2)C3)cn1` [Example 63, 2-(1-Amino-cyclopropylmethyl)-8-(6-cyano-pyridin-3-yl)-4,5-dihydro-1H-pyrrolo[2,3-f]isoquinoline-3-carboxylic acid lactam], the IC50 rises from 0.009 µM to 0.089 µM (9.9-fold). The first is the more potent here.

First: CN1CC2(C1)c1[nH]c3c(c1C(=O)NC21CC1)CCc1cnc(-c2cccc(F)c2)cc1-3 [Example 208, 2-[3-(1-Amino-cyclopropyl)-1-methyl-azetidin-3-yl]-8-(3-fluoro-phenyl)-4,5-dihydro-1H-pyrrolo[2,3-f]isoquinoline-3-carboxylic acid lactam]
Second: CN1CC2(C1)c1c(c3c(n1C)-c1cc(-c4cccc(F)c4)ncc1CC3)C(=O)NC21CC1 [Example 210, 2-[3-(1-Amino-cyclopropyl)-1-methyl-azetidin-3-yl]-8-(3-fluoro-phenyl)-1-methyl-4,5-dihydro-1H-pyrrolo[2,3-f]isoquinoline-3-carboxylic acid lactam]
The IC50 of the first is lower: < 0.003 µM for the first, 0.045 µM for the second. The first is the more potent here.

Going from `O=C1NC2(CC2)Cc2[nH]c3c(c21)CCc1cnc(-c2ccc(CO)nc2)cc1-3` [Example 240, 2-(1-Amino-cyclopropylmethyl)-8-(6-hydroxymethyl-pyridin-3-yl)-4,5-dihydro-1H-pyrrolo[2,3-f]isoquinoline-3-carboxylic acid lactam] to `CC(=O)OCc1ccc(-c2cc3c(cn2)CCc2c-3[nH]c3c2C(=O)NC2(CC2)C3)cn1` [Example 244, 8-(6-Acetoxymethyl-pyridin-3-yl)-2-(1-amino-cyclopropylmethyl)-4,5-dihydro-1H-pyrrolo[2,3-f]isoquinoline-3-carboxylic acid lactam], the IC50 rises from 0.011 µM to 0.043 µM (3.9-fold).

`CC(C)Oc1ccc(-c2cc3c(cn2)CCc2c-3[nH]c3c2C(=O)NC2(CC2)C32CC2)cn1` [Example 200, 2-(1′-Amino-bicyclopropyl-1-yl)-8-[6-isopropoxy-pyridin-3-yl]-4,5-dihydro-1H-pyrrolo[2,3-f]isoquinoline-3-carboxylic acid lactam] and `O=C1NC2(CC2)C2(CC2)c2[nH]c3c(c21)CCc1cnc(-c2ccc(N4CCNCC4)cc2)cc1-3` [Example 220, 2-(1′-Amino-bicyclopropyl-1-yl)-8-(4-piperazin-1-yl-phenyl)-4,5-dihydro-1H-pyrrolo[2,3-f]isoquinoline-3-carboxylic acid lactam hydrochloride] are within 1.5-fold of each other in IC50: 0.037 µM for the first, 0.026 µM for the second.

`CN1CC2(CNC(=O)c3c4c(n(C)c32)-c2nc(-c3cccc(F)c3)ncc2CC4)C1` [Example 204, 2-(3-Aminomethyl-1-methyl-azetidin-3-yl)-8-(3-fluoro-phenyl)-1-methyl-4,5-dihydro-1H-1,7,9-triaza-cyclopenta[a]naphthalene-3-carboxylic acid lactam] and `Cn1c2c(c3c1-c1cc(-c4ccc(F)nc4)ncc1CC3)C(=O)NC1(CNC1)C2` [Example 134, 2-(3-Amino-azetidin-3-ylmethyl)-8-(6-fluoro-pyridin-3-yl)-1-methyl-4,5-dihydro-1H-pyrrolo[2,3-f]isoquinoline-3-carboxylic acid lactam hydrochloride] are within 1.5-fold of each other in IC50: 0.022 µM for the first, 0.02 µM for the second.

Going from `CC(C)(O)C#Cc1ccc(-c2cc3c(cn2)CCc2c-3[nH]c3c2C(=O)NCC32CC2)cc1` [Example 119] to `CC(C)(N)C#Cc1ccc(-c2cc3c(cn2)CCc2c-3[nH]c3c2C(=O)NC2(CC2)C3)cc1` [Example 82, 2-(1-Amino-cyclopropylmethyl)-8-[4-(3-amino-3-methyl-but-1-ynyl)-phenyl]-4,5-dihydro-1H-pyrrolo[2,3-f]isoquinoline-3-carboxylic acid lactam], the IC50 falls from 0.089 µM to 0.024 µM (3.7-fold).

First: CN(C)c1ccc(-c2cc3c(cn2)CCc2c-3[nH]c3c2C(=O)NC2(CC2)C3)cn1 [Example 68, 2-(1-Amino-cyclopropylmethyl)-8-6-dimethylamino-pyridin-3-yl-4,5-dihydro-1H-pyrrolo[2,3-f]isoquinoline-3-carboxylic acid lactam]
Second: COc1ncc(-c2cc3c(cn2)CCc2c-3[nH]c3c2C(=O)NC2(CC2)C3)s1 [Example 283, 2-(1-Amino-cyclopropylmethyl)-8-(2-methoxy-5-thiazolyl)-4,5-dihydro-1H-pyrrolo[2,3-f]isoquinoline-3-carboxylic acid lactam]
The IC50 of the first is 2-fold lower: 0.049 µM for the first, 0.098 µM for the second.

Going from `COc1ccc(-c2ncc3c(n2)-c2[nH]c4c(c2CC3)C(=O)NC2(CC2)C42CNC2)cc1` [Example 214, 2-[3-(1-Amino-cyclopropyl)-azetidin-3-yl]-8-(4-methoxy-phenyl)-4,5-dihydro-1H-1,7,9-triaza-cyclopenta[a]naphthalene-3-carboxylic acid lactam hydrochloride] to `O=C1NCC2(CNC2)c2[nH]c3c(c21)CCc1cnc(-c2ccc(F)nc2)cc1-3` [Example 160, 2-(3-Aminomethyl-azetidin-3-yl)-8-(6-fluoro-pyridin-3-yl)-4,5-dihydro-1H-pyrrolo[2,3-f]isoquinoline-3-carboxylic acid lactam hydrochloride], the IC50 falls from 0.006 µM to < 0.003 µM.

Going from `CN1CC2(CNC(=O)c3c2[nH]c2c3CCc3cnc(-c4cccc(C(=O)NCc5ccccc5)c4)cc3-2)C1` [Example 262, 2-(3-Aminomethyl-1-methyl-azetidin-3-yl)-8-(3-benzylcarbamoyl-phenyl)-4,5-dihydro-1H-pyrrolo[2,3-f]isoquinoline-3-carboxylic acid lactam] to `CN1CCOc2cc(-c3cc4c(cn3)CCc3c5c(n(C)c3-4)CC3(CNC3)NC5=O)ccc21` [Example 145, 2-(3-Amino-azetidin-3-ylmethyl)-1-methyl-8-(4-methyl-3,4-dihydro-2H-benzo[1,4]oxazin-7-yl)-4,5-dihydro-1H-pyrrolo[2,3-f]isoquinoline-3-carboxylic acid lactam hydrochloride], the IC50 rises from < 0.003 µM to 0.029 µM. The first is the more potent here.

Reference: patent US7838674B2, “Tetracyclic lactame derivatives” (Novartis AG, priority 2007, dated 2010)
